Source: US5428059A, “Benzopyran derivatives and an anti-allergic agent possessing the same as the active ingredient” (Dainippon Ink & Chemicals, Inc., priority 1991, dated 1995)

The compounds below were run on Hartley-type male guinea pigs (assay: Guinea Pig Homogeneous Skin Passive Anaphylaxis Assay (PCA reaction)). Conditions: Cavia porcellus, 10 mg/kg oral, 48 h after sensitization, read-out: Allergic reaction inhibitory index (%).
Format: in vivo, guinea pig (Hartley-type)
Description: In order to confirm the anti-allergic action of the compounds according to the present invention, as an anti-allergic action confirmation assay, the widely used Guinea Pig Homogeneous Skin Passive Anaphylaxis Assay (PCA Reaction Assay; Passive Cutaneous Anaphylaxis Reaction Assay) was carried out. The assay method used will be explained in the following.
Assay method: Hartley-type male guinea pigs (body weight: 250~300 g) were sensitized by the following procedure; a mixture of 2 μg of egg albumin (OVA) and 5 μg of aluminium hydroxide gel was administered intraperitoneally 3 times every 2 weeks, and the anti-OVA blood serum was manufactured.
The anti-blood serum obtained was then diluted 120 times using physiological saline solution, and then to groups each containing 6 shaved guinea pigs, was injected at a quantity of 0.05 ml respectively, into two positions in the back portion, inside the skin of each animal.
After the 48th hour of sensitization, 10 mg/kg of the test substance to be tested was orally administered, following which a mixture of 2 mg OVA and 5 mg of Evans Blue was administered by intraveneous injection into the hind leg, triggering the anaphylaxis reaction. As the positive control, Tranilast, a well known anti-allergic agent, was used, and in the same manner as the substances to be tested, 100 mg/kg of it was orally administered after the 48th hour of sensitization.
30 minutes after triggering the reaction, the animals were bled to death under ether anesthesia, and their back portion skins were peeled off. The long and short diameters of pigment leakage spots on the interior surface of the skins were measured, and the product of these (mm^2) were entered into formula 1 as "pigment leakage amount", from which the allergic reaction inhibitory index wins calculated. [formula]
I: Allergic reaction inhibitory index (%)
A: Pigment leakage amount of solvent control group
B: Pigment leakage amount of test substance group
C: Pigment leakage amount of […]
Work on `COc1cccc2oc(=O)c(O)c(O)c12` [Compound 195, 3,4-(dihydroxy)-5-(methoxy)-2H-1-benzopyran-2-one] yielded an inhibition in vivo at 10 mg/kg of 55%. `CC(C)=CCC/C(C)=C/COc1cccc2oc(=O)c(OC(=O)c3ccccc3)c(OC/C=C(\C)CCC=C(C)C)c12` [Compound 256, 3-(benzoyloxy)-4,5-(digeranyloxy)-2H-1-benzopyran-2-one] gave an inhibition in vivo at 10 mg/kg of 30%. Compound `CC(C)Oc1c(O)c(=O)oc2c(OC(C)C)cccc12` [Compound 134, 3-hydroxy-4,8-(disopropoxy)-2H-1-benzopyran-2-one] has an inhibition in vivo at 10 mg/kg of 30%. `CCCCCCCCCCOc1ccc2c(OC)c(OC(=O)c3ccccc3)c(=O)oc2c1` [Compound 65, 3-(benzoyloxy)-4-(methoxy)-7-(decyloxy)-2H-1-benzopyran-2-one] showed an inhibition in vivo at 10 mg/kg of 32%. For `CC(=O)Oc1c(OC(C)C)c2cccc(O)c2oc1=O` [Compound 100, 3-(acetoxy)-4-(isopropoxy)-8-hydroxy-2H-1-benzopyran-2-one], the inhibition in vivo at 10 mg/kg was 30%. Work on `CCCCCCCCCCOc1cccc2c(OC(=O)c3ccccc3)c(OC)c(=O)oc12` [Compound 150, 3-(methoxy)-4-(benzoyloxy)-8-(decyloxy)-2H-1-benzopyran-2-one] yielded an inhibition in vivo at 10 mg/kg of 34%. Compound `CCCCCCCCCCOc1cccc2c(O)c(OC(C)C)c(=O)oc12` [Compound 147, 3-(isopropoxy)-4-hydroxy-8-(decyloxy)-2H-1-benzopyran-2-one] has an inhibition in vivo at 10 mg/kg of 30%. Compound `O=c1oc2cc(O)ccc2c(O)c1O` [Compound 5, 3,4,7-trihydroxy-2H-1-benzopyran-2-one] has an inhibition in vivo at 10 mg/kg of 68%. With `CCCCCCCCCCOc1c(OC)c(=O)oc2cc(OC)ccc12` [Compound 36, 3,7-(dimethoxy)-4-(decyloxy)-2H-1-benzopyran-2-one] the inhibition in vivo at 10 mg/kg was 30%. Work on `CC(C)=CCC/C(C)=C/COc1c(O)c2cccc(OC/C=C(\C)CCC=C(C)C)c2oc1=O` [Compound 167, 3,8-(digeranyloxy)-4-hydroxy-2H-1-benzopyran-2-one] yielded an inhibition in vivo at 10 mg/kg of 30%. In the case of `CC(C)=CCC/C(C)=C/COc1c(OC/C=C(\C)CCC=C(C)C)c2cccc(OC(C)C)c2oc1=O` [Compound 142, 3,4-(digeranyloxy)-8-(isopropoxy)-2H-1-benzopyran-2-one], the inhibition in vivo at 10 mg/kg is reported as 31%. With `COc1cccc2c(OC(=O)c3ccccc3)c(OC(C)C)c(=O)oc12` [Compound 119, 3-(isopropoxy)-4-(benzoyloxy)-8-(methoxy)-2H-1-benzopyran-2-one] the inhibition in vivo at 10 mg/kg was 30%. With `CCCCCCCCCCOc1c(OC(C)=O)c(=O)oc2cc(O)ccc12` [Compound 12, 3-(acetoxy)-4-(decyloxy)-7-hydroxy-2H-1-benzopyran-2-one] the inhibition in vivo at 10 mg/kg was 30%. With `CCCCCCCCCCOc1c(OC(C)=O)c(=O)oc2c(OC)cccc12` [Compound 118, 3-(acetoxy)-4-(decyloxy)-8-(methoxy)-2H-1-benzopyran-2-one] the inhibition in vivo at 10 mg/kg was 32%. `CC(C)=CCC/C(C)=C/COc1cccc2oc(=O)c(OC(=O)c3ccccc3)c(O)c12` [Compound 244, 3-(benzoyloxy)-4-hydroxy-5-(geranyloxy)-2H-1-benzopyran-2-one] was tested, and the inhibition in vivo at 10 mg/kg was 33%. `CCCCCCCCCCOc1cccc2c(OC/C=C(\C)CCC=C(C)C)c(O)c(=O)oc12` [Compound 152, 3-hydroxy-4-(geranyloxy)-8-(decyloxy)-2H-1-benzopyran-2-one] gave an inhibition in vivo at 10 mg/kg of 31%. For `CC(=O)Oc1c(O)c(=O)oc2c(OC(C)C)cccc12` [Compound 131, 3-hydroxy-4-(acetoxy)-8-(isopropoxy)-2H-1-benzopyran-2-one], the inhibition in vivo at 10 mg/kg was 31%. For `CC(=O)Oc1c(OC/C=C(\C)CCC=C(C)C)c(=O)oc2c(OC(C)=O)cccc12` [Compound 105, 3-(geranyloxy)-4,8-(diacetoxy)-2H-1-benzopyran-2-one], the inhibition in vivo at 10 mg/kg was 30%. `CC(C)Oc1c(OC(=O)c2ccccc2)c2ccc(O)cc2oc1=O` [Compound 13, 3-(isopropoxy)-4-(benzoyloxy)-7-hydroxy-2H-1-benzopyran-2-one] gave an inhibition in vivo at 10 mg/kg of 32%. With `CCCCOc1cccc2c(O)c(O)c(=O)oc12` [Compound 128, 3,4-(dihydroxy)-8-(butyloxy)-2H-1-benzopyran-2-one] the inhibition in vivo at 10 mg/kg was 40%. Compound `CC(=O)Oc1c(OC/C=C(\C)CCC=C(C)C)c(=O)oc2c(OC/C=C(\C)CCC=C(C)C)cccc12` [Compound 169, 3,8-(digeranyloxy)-4-(acetoxy)-2H-1-benzopyran-2-one] has an inhibition in vivo at 10 mg/kg of 30%. Compound `CCCCCCCCCCOc1ccc2c(OC/C=C(\C)CCC=C(C)C)c(OC/C=C(\C)CCC=C(C)C)c(=O)oc2c1` [Compound 73, 3-4-(digeranyloxy)-7-(decyloxy)-2H-1-benzopyran-2-one] has an inhibition in vivo at 10 mg/kg of 30%. For `CC(C)=CCC/C(C)=C/COc1c(O)c(=O)oc2cccc(O)c12` [Compound 188, 3,5-(dihydroxy)-4-(geranyloxy)-2H-1-benzopyran-2-one], the inhibition in vivo at 10 mg/kg was 32%. For `CC(=O)Oc1c(OC(C)=O)c2c(OC(C)=O)cccc2oc1=O` [Compound 179, 3,4,5-(triacetoxy)-2H-1-benzopyran-2-one], the inhibition in vivo at 10 mg/kg was 32%. `CCCCOc1c(OC(=O)c2ccccc2)c(=O)oc2cccc(O)c12` [Compound 224, 3-(benzoyloxy)-4-(butoxy)-5-hydroxy-2H-1-benzopyran-2-one] was tested, and the inhibition in vivo at 10 mg/kg was 30%. Compound `CC(=O)Oc1c(O)c(=O)oc2cccc(OC/C=C(\C)CCC=C(C)C)c12` [Compound 246, 3-hydroxy-4-(acetoxy)-5-(geranyloxy)-2H-1-benzopyran-2-one] has an inhibition in vivo at 10 mg/kg of 30%. `COc1c(O)c2ccc(O)cc2oc1=O` [Compound 14, 3-(methoxy)-4,7-(dihydroxy)-2H-1-benzopyran-2-one] was tested, and the inhibition in vivo at 10 mg/kg was 47%. Compound `CC(C)=CCC/C(C)=C/COc1c(OC/C=C(\C)CCC=C(C)C)c2ccc(O)cc2oc1=O` [Compound 26, 3,4-(digeranyloxy)-7-hydroxy-2H-1-benzopyran-2-one] has an inhibition in vivo at 10 mg/kg of 30%. Work on `COc1cccc2oc(=O)c(OC/C=C(\C)CCC=C(C)C)c(O)c12` [Compound 203, 3-(geranyloxy)-4-hydroxy-5-(methoxy)-2H-1-benzopyran-2-one] yielded an inhibition in vivo at 10 mg/kg of 41%. In the case of `COc1ccc2c(OC/C=C(\C)CCC=C(C)C)c(OC/C=C(\C)CCC=C(C)C)c(=O)oc2c1` [Compound 43, 3,4-(digeranyloxy)-7-(methoxy)-2H-1-benzopyran-2-one], the inhibition in vivo at 10 mg/kg is reported as 30%. Compound `COc1ccc2c(O)c(OC(=O)c3ccccc3)c(=O)oc2c1` [Compound 27, 3-(benzoyloxy)-4-hydroxy-7-(methoxy)-2H-1-benzopyran-2-one] has an inhibition in vivo at 10 mg/kg of 40%. `O=c1oc2ccc(O)cc2c(O)c1O` [Compound 263, 3,4,6-trihydroxy-2H-1-benzopyran-2-one] was tested, and the inhibition in vivo at 10 mg/kg was 42%. `CCCCCCCCCCOc1c(O)c(=O)oc2cccc(O)c12` [Compound 183, 3,5-(dihydroxy)-4-(decyloxy)-2H-1-benzopyran-2-one] showed an inhibition in vivo at 10 mg/kg of 30%. `CC(C)=CCC/C(C)=C/COc1c(O)c2ccc(O)cc2oc1=O` [Compound 19, 3-(geranyloxy)-4,7-(dihydroxy)-2H-1-benzopyran-2-one] was tested, and the inhibition in vivo at 10 mg/kg was 42%. In the case of `COc1c(O)c(=O)oc2ccc(O)cc12` [Compound 267, 3,6-(dihydroxy)-4-(methoxy-2H-1-benzopyran-2-one], the inhibition in vivo at 10 mg/kg is reported as 34%.
